The results in this text go back to patent publication US6011013A, “Contraceptive compositions and methods” (Oregon Health Sciences University, priority 1998, dated 2000).

The subject of one data set is PKA. Briefly: PKA activity of sperm treated whole, then washed and lysed. The format is cell-based, bovine. The note with it: 50 μM. The procedure:
(§1) (A). Bovine caudal and caput sperm were incubated in buffer A in the presence or absence of 50 μM CDA and/or 50 μM H-89. When sperm were treated with both CDA and H-89, the H-89 was added 15 min prior to CDA. Motility was assessed by CASMA at 15 min following treatment. (B) Bovine sperm were incubated as described for A and then assessed for PKA activity. Where indicated, 10 μM cAMP was added to the PKA assay.
PKA Activity PKA was assayed as previously described (Carr et al., J. Biol. Chem. 268:20729-20732, 1993) with minor changes. Whole caput or caudal sperm were treated with 2-chloro-2-deoxyadenosine (50 μM), H-89 (50 μM), or both for 30 min. at 37° C. The sperm were then washed twice in ice cold homogenization buffer supplemented with protease inhibitors, benzamidine (10 mM), leupeptin (4 μg/ml), and N-tosyl-L-phenylalanine chloromethyl ketone (TPCK) (100 μM), and sonicated for one min. Reaction mixtures (20 uL total) contained 250 μM kemptide, 250 μM (γ-^32 P)ATP, 25 mM Na3 VO4, 50 mM 3-[N-morpholino]propanesulfonic acid (MOPS) (pH=7.0), 10 mM MgCl2, 0.25 mg/ml BSA and where indicated, 10 μM cAMP. Assays were initiated by addition of labeled ATP, incubated for 2 min at 30° C., and stopped by addition of 30 μL of 1N HCl. […] The papers were then analyzed by Cerenkov counting. […]

Data set [1] relates to bovine caudal epididymal sperm. The experiment in a line: Sperm motility by computer-automated sperm motility analysis (CASMA), Forward Motility Index. The format is cell-based. How it is done: (A) Sperm were incubated in buffer A containing s-Ht31 at 5 μM (circle), 10 μM (square) or 50 μM (diamond) or a control peptide, S-Ht31-P at 50 μM (cross). Motility was assessed at the times indicated by computer-automated sperm motility analysis (CASMA) as described in Experimental Procedures. (B) Sperm were incubated for 5 min in buffer A containing increasing concentrations of S-Ht31 (diamonds) or control peptide S-Ht31-P (triangle) and motility was assessed.
(A) Bovine caudal epididymal sperm were suspended in buffer A supplemented with 2 mM calcium (+Calcium) or 2 mM EGTA (-Calcium). Motility was assessed by CASMA at 5, 30 and 60 min following addition of either water (control) or 10 μM s-Ht31. (B) Sperm were incubated in buffer A containing 2 mM calcium and 50 mM bicarbonate (where indicated). Motility was assessed at 5, 30 and 60 min following addition of either water (control) or 10 μM s-Ht31.
as §1
Sperm Preparation. […]
Sperm Motility Measurement. Head motility parameters were determined as previously described (Vijayaraghavan et al., Biol. Reprod 54:709-718, 1996; Stephens et al., Biol. Reprod. 38:577-586, 1988). […] After bulk fluid movement had subsided, six different locations on the slide were recorded. The videotaped segments were analyzed by a computerized image-analysis system (CASMA) as previously described (Vijayaraghavan et al., Biol. Reprod. 54:709-718, 1996; Stephens et al., Biol. Reprod. 38:577-586, 1988). […] FMI is a product of percent motile (%M, percent of sperm moving at velocity greater than […]) and average velocity (Va, the five-point smoothed average of the head positions through at least 20 of the 30 frames analyzed).

The test system of the next data set is sperm. The format is cell-based, bovine. How it is done: To determine if S-Ht31 affects sperm viability or structural integrity, the vital dyes SYBR-green and rhodamine 123 were added to sperm before and after treatment with S-Ht31. Only viable, intact cells take up these dyes.
A further data set has as its system bovine caput sperm. Briefly: Caput sperm motility by CASMA. The note with it: 50 μM H-89 added 15 min prior to 50 μM CDA. Format: cell-based. The procedure:
(A). Bovine caudal and caput sperm were incubated in buffer A in the presence or absence of 50 μM CDA and/or 50 μM H-89. When sperm were treated with both CDA and H-89, the H-89 was added 15 min prior to CDA. Motility was assessed by CASMA at 15 min following treatment. (B) Bovine sperm were incubated as described for A and then assessed for PKA activity. Where indicated, 10 μM cAMP was added to the PKA assay. Sperm Preparation. Testes from mature bulls with intact tunica were obtained from a local slaughter house and sperm from caput or caudal epididymis were isolated and washed as previously described (Vijayaraghavan et al., Biol. Reprod. 32:489-500, 1985). […] Head motility parameters were determined as previously described (Vijayaraghavan et al., Biol. Reprod 54:709-718, 1996; Stephens et al., Biol. Reprod. 38:577-586, 1988). […] After bulk fluid movement had subsided, six different locations on the slide were recorded. The videotaped segments were analyzed by a computerized image-analysis system (CASMA) as previously described (Vijayaraghavan et al., Biol. Reprod. 54:709-718, 1996; Stephens et al., Biol. Reprod. 38:577-586, 1988). […] FMI is a product of percent motile (%M, percent of sperm moving at velocity greater than […]) and average velocity (Va, the five-point smoothed average of the head positions through at least 20 of the 30 frames analyzed).

For `Nc1nc(Cl)nc2c1ncn2[C@H]1C[C@H](O)[C@@H](CO)O1` [CDA, 2-chloro-2-deoxyadenosine], the “increase of basal PKA activity” value with PKA (both caudal and caput sperm, absence of cAMP) is recorded as “approximately 60%”. In addition, the “sperm motility under conditions where sperm PKA is inhibited” value in data set [1] (with H-89) was “still induce or stimulate sperm motility”.
On to `CCCCCCCCCCCCCCCCCC(=O)N[C@@H](CC(=O)O)C(=O)N[C@@H](CC(C)C)C(=O)N[C@H](C(=O)N[C@@H](CCC(=O)O)C(=O)N[C@@H](CCC(=O)O)C(=O)N[C@@H](C)C(=O)N[C@@H](C)C(=O)N[C@@H](CO)C(=O)N[C@@H](CCCNC(=N)N)C(=O)N[C@H](C(=O)N[C@H](C(=O)N[C@@H](CC(=O)O)C(=O)N[C@@H](C)C(=O)N[C@H](C(=O)N[C@H](C(=O)N[C@@H](CCC(=O)O)C(=O)N[C@@H](CCC(N)=O)C(=O)N[C@H](C(=O)N[C@@H](CCCCN)C(=O)N[C@@H](C)C(=O)N[C@@H](C)C(=O)NCC(=O)N[C@@H](C)C(=O)N[C@@H](Cc1ccc(O)cc1)C(=O)O)C(C)C)[C@@H](C)CC)C(C)C)C(C)C)[C@@H](C)CC)[C@@H](C)CC` [s-Ht31], for which, in the data set with sperm, the “release of dyes from sperm loaded with BCECF or Fura 2 (plasma membrane integrity)” value is “did not compromise the integrity of the plasma membrane”; the “sperm viability and plasma membrane integrity (uptake of vital dyes SYBR-green and rhodamine 123)” value is on record as “did not decrease viability or disrupt the integrity of the sperm plasma membrane”.
The inhibition is how much of the control response was suppressed. Consider `O=S(=O)(NCCNCC=Cc1ccc(Br)cc1)c1cccc2cnccc12` [H-89, N-[2-(p-bromocinnamylamino)ethyl]-5-isoquinoline-sulfonamide], for which the “effect on cellular PKA activity” value in the data set on PKA (sperm washed before lysis) is “strongly inhibited PKA activity”. Moreover, in data set [1] (50 μM H-89, 50 μM CDA), the “effect on sperm motility stimulated by CDA” value is reported as “had no effect”. In addition, the inhibition at 50 µM in data set [1] (Bos taurus, Sperm, 50 μM, read-out: inhibition of basal sperm motility) is no more than 50%. In addition, the “effect of preincubation on motility induction by CDA in caput sperm” value with bovine caput sperm was “unaffected”.
With `C[C@@H]1CC[C@@]2(OC1)O[C@H]1[C@@H](O)[C@H]3[C@@H]4CC[C@H]5C[C@@H](O[C@@H]6O[C@H](CO)[C@H](O[C@@H]7O[C@H](CO)[C@@H](O)[C@H](O[C@@H]8OC[C@@H](O)[C@H](O)[C@H]8O)[C@H]7O[C@@H]7O[C@H](CO)[C@H](O)[C@H](O[C@@H]8O[C@H](CO)[C@@H](O)[C@H](O)[C@H]8O)[C@H]7O)[C@H](O)[C@H]6O)[C@H](O)C[C@]5(C)[C@H]4CC[C@]3(C)[C@H]1[C@@H]2C` [digitonin], in the data set on sperm, the “release of dyes from sperm loaded with BCECF or Fura 2 (plasma membrane integrity)” value is “caused release of these dyes”.
